Measurements: ChEMBL document CHEMBL5226376, “A Streptomyces Cytochrome P450 Enzyme Catalyzes Regiospecific C2-Guaninylation for the Synthesis of Diverse Guanitrypmycin Analogs” (J Nat Prod, 2023)
Calls of active or inactive are those of the source.

Legend:
Format in all cases: functional, organism-based
Niallia circulans [1] = test: Antibacterial activity against Bacillus circulans NRRLB-14032 assessed as inhibition of bacterial growth incubated for overnight by disk diffusion method
Pseudomonas aeruginosa = test: Antibacterial activity against Pseudomonas aeruginosa ATCC 27853 assessed as inhibition of bacterial growth incubated for overnight by disk diffusion method
Bacillus subtilis [2] = test: Antibacterial activity against Bacillus subtilis NCIB3610 assessed as inhibition of bacterial growth incubated for overnight by disk diffusion method
Staphylococcus delphini = test: Antibacterial activity against Staphylococcus delphini DSM20771 assessed as inhibition of bacterial growth incubated for overnight by disk diffusion method
Klebsiella pneumoniae = test: Antibacterial activity against Klebsiella pneumoniae DSM26371 assessed as inhibition of bacterial growth incubated for overnight by disk diffusion method
Escherichia coli [3] = test: Antibacterial activity against Escherichia coli DH5alpha assessed as inhibition of bacterial growth incubated for overnight by disk diffusion method
Niallia circulans [4] = test: Antibacterial activity against Bacillus circulans NRRLB-380 assessed as inhibition of bacterial growth incubated for overnight by disk diffusion method
Bacillus subtilis [5] = test: Antibacterial activity against Bacillus subtilis BSB01 assessed as inhibition of bacterial growth incubated for overnight by disk diffusion method
Escherichia coli [6] = test: Antibacterial activity against Escherichia coli ATCC 25922 assessed as inhibition of bacterial growth incubated for overnight by disk diffusion method
Staphylococcus aureus = test: Antibacterial activity against Staphylococcus aureus ATCC 29213 assessed as inhibition of bacterial growth incubated for overnight by disk diffusion method
Niallia circulans [7] = test: Antibacterial activity against Bacillus circulans NRRLNRS-1108 assessed as inhibition of bacterial growth incubated for overnight by disk diffusion method
Enterococcus faecalis = test: Antibacterial activity against Enterococcus faecalis DSM2570 assessed as inhibition of bacterial growth incubated for overnight by disk diffusion method

Measured: Activity

Nc1nc2[nH]c(-c3[nH]c4ccccc4c3C[C@@H]3NC(=O)[C@H](Cc4ccccc4)NC3=O)nc2c(=O)[nH]1
inactive: all assays above

Nc1nc2[nH]c(-c3[nH]c4ccccc4c3C[C@@H]3NC(=O)[C@H](Cc4c[nH]c5ccccc45)NC3=O)nc2c(=O)[nH]1
inactive: all assays above

Nc1nc2[nH]c(-c3[nH]c4ccccc4c3C[C@@H]3NC(=O)/C(=C/c4ccccc4)NC3=O)nc2c(=O)[nH]1
inactive: all assays above

Nc1nc2[nH]c(-c3[nH]c4ccccc4c3C[C@@H]3NC(=O)[C@H](Cc4ccc(O)cc4)NC3=O)nc2c(=O)[nH]1
inactive: all assays above

Nc1nc2[nH]c(-c3[nH]c4ccccc4c3C[C@@H]3NC(=O)/C(=C/c4ccc(O)cc4)NC3=O)nc2c(=O)[nH]1
inactive: all assays above
